Data from ChEMBL document CHEMBL1148015, “Chipping at large, potent human T-cell leukemia virus type 1 protease inhibitors to uncover smaller, equipotent inhibitors” (Bioorg Med Chem Lett, 2007).
*1 amine or outer side, *2 acyl side, *3 side chain or, on linkers, in order; H or OH if unused. Where a SMILES comes first, the peptide text is derived from it. [ ]: non-standard residue; d: D form. The star is where a group is joined. X1 = O=C([C@@H](O)[C@H](Cc1ccccc1)N[*:1])[*:2]; Thz(5,5-Me2) = CC1(C)SCN[C@@H]1C(=O)O; X2 = N[C@@H](Cc1ccccc1)[C@H](O)C(=O)*

Assays:
[1] = tested on: Human immunodeficiency virus 1; assay: Inhibition of recombinant HIV1 protease at 50 nM
[2] = tested on: Human T-cell leukemia virus type I; assay: Inhibition of human recombinant HTLV1 protease at 100 uM

Compound | inhibition [1] | inhibition [2]
CSCC[C@H](NC(=O)[C@@H](CSC)NC(=O)[C@H]1N(C(=O)[C@@H](O)[C@H](Cc2ccccc2)NC(=O)[C@@H](NC(=O)[C@H](CCC(N)=O)NC(C)=O)C(C)C)CSC1(C)C)C(N)=O | 92% | < 30%
CSCC[C@H](NC(=O)[C@@H](NC(=O)[C@@H]1CCCN1C(=O)[C@@H](O)[C@H](Cc1ccccc1)NC(=O)[C@H](NC(=O)[C@@H](CCC(N)=O)NC(C)=O)C(C)C)C(C)C)C(=O)N[C@@H](Cc1c[nH]cn1)C(=O)O | < 30% | 49%
CSCC[C@H](NC(=O)[C@@H](NC(=O)[C@@H]1CCCN1C(=O)[C@@H](O)[C@H](Cc1ccccc1)NC(=O)[C@H](NC(=O)[C@H](N)CCC(N)=O)C(C)C)C(C)C)C(=O)N[C@@H](Cc1c[nH]cn1)C(=O)O | < 30% | < 30%
CSCC[C@H](NC(=O)[C@@H](NC(=O)[C@H]1N(C(=O)[C@@H](O)[C@H](Cc2ccccc2)NC(=O)[C@@H](NC(=O)[C@H](C)NC(C)=O)C(C)C)CSC1(C)C)C(C)C)C(N)=O (Ac-AV[X1][Thz(5,5-Me2)]VM-NH2) | 96% | 56%
CSCC[C@H](NC(=O)[C@@H](NC(=O)[C@H]1N(C(=O)[C@@H](O)[C@H](Cc2ccccc2)NC(=O)[C@@H](NC(=O)[C@H](Cc2ccccc2)NC(C)=O)C(C)C)CSC1(C)C)C(C)C)C(N)=O (Ac-FV[X1][Thz(5,5-Me2)]VM-NH2) | 95% | 74%
CC[C@H](C)[C@H](NC(C)=O)C(=O)N[C@H](C(=O)N[C@@H](Cc1ccccc1)[C@H](O)C(=O)N1CSC(C)(C)[C@H]1C(=O)N[C@H](C(=O)N[C@@H](CCSC)C(N)=O)[C@@H](C)CC)[C@@H](C)CC (Ac-II[X1][Thz(5,5-Me2)]IM-NH2) | 98% | 94%
CC[C@H](C)[C@H](NC(C)=O)C(=O)N[C@H](C(=O)N[C@@H](Cc1ccccc1)[C@H](O)C(=O)N1CSC(C)(C)[C@H]1C(=O)N[C@H](C(=O)N[C@@H](Cc1ccccc1)C(N)=O)C(C)C)C(C)C (Ac-IV[X1][Thz(5,5-Me2)]VF-NH2) | 98% | 84%
CC[C@H](C)[C@H](NC(=O)[C@@H](NC(=O)[C@H]1N(C(=O)[C@@H](O)[C@H](Cc2ccccc2)NC(=O)[C@@H](NC(=O)[C@@H](NC(C)=O)[C@@H](C)CC)C(C)C)CSC1(C)C)C(C)C)C(N)=O (Ac-IV[X1][Thz(5,5-Me2)]VI-NH2) | 97% | 78%
CC[C@H](C)[C@H](NC(C)=O)C(=O)N[C@H](C(=O)N[C@@H](Cc1ccccc1)[C@H](O)C(=O)N1CSC(C)(C)[C@H]1C(=O)N[C@H](C(=O)N[C@@H](CC(C)C)C(N)=O)C(C)C)C(C)C (Ac-IV[X1][Thz(5,5-Me2)]VL-NH2) | 95% | 54%
CC[C@H](C)[C@H](NC(C)=O)C(=O)N[C@H](C(=O)N[C@@H](Cc1ccccc1)[C@H](O)C(=O)N1CSC(C)(C)[C@H]1C(=O)N[C@H](C(=O)N[C@@H](CCSC)C(N)=O)C(C)C)C(C)C (Ac-IV[X1][Thz(5,5-Me2)]VM-NH2) | 98% | 87%
CC[C@H](C)[C@H](NC(C)=O)C(=O)N[C@H](C(=O)N[C@@H](Cc1ccccc1)[C@H](O)C(=O)N1CSC(C)(C)[C@H]1C(=O)N[C@H](C(=O)N[C@@H](CCC(N)=O)C(N)=O)C(C)C)C(C)C (Ac-IV[X1][Thz(5,5-Me2)]VQ-NH2) | 95% | 86%
CC[C@H](C)[C@H](NC(C)=O)C(=O)N[C@H](C(=O)N[C@@H](Cc1ccccc1)[C@H](O)C(=O)N1CSC(C)(C)[C@H]1C(=O)N[C@H](C(=O)N[C@H](C(N)=O)C(C)C)C(C)C)C(C)C (Ac-IV[X1][Thz(5,5-Me2)]VV-NH2) | 96% | 70%
CSCC[C@H](NC(=O)[C@@H](NC(=O)[C@H]1N(C(=O)[C@@H](O)[C@H](Cc2ccccc2)NC(=O)[C@@H](NC(=O)[C@H](CC(C)C)NC(C)=O)C(C)C)CSC1(C)C)C(C)C)C(N)=O (Ac-LV[X1][Thz(5,5-Me2)]VM-NH2) | 99% | 83%
CSCC[C@H](NC(=O)[C@@H](NC(=O)[C@H]1N(C(=O)[C@@H](O)[C@H](Cc2ccccc2)NC(=O)[C@H](CSC)NC(=O)[C@H](CCC(N)=O)NC(C)=O)CSC1(C)C)C(C)C)C(N)=O (Ac-QC(Me)[X1][Thz(5,5-Me2)]VM-NH2) | 96% | 51%
CC[C@H](C)[C@H](NC(=O)[C@H](CCC(N)=O)NC(C)=O)C(=O)N[C@@H](Cc1ccccc1)[C@H](O)C(=O)N1CSC(C)(C)[C@H]1C(=O)N[C@H](C(=O)N[C@@H](CCSC)C(N)=O)C(C)C (Ac-QI[X1][Thz(5,5-Me2)]VM-NH2) | 95% | 85%
CSCC[C@H](NC(=O)[C@@H](NC(=O)[C@H]1N(C(=O)[C@@H](O)[C@H](Cc2ccccc2)NC(=O)[C@H](CC(C)C)NC(=O)[C@H](CCC(N)=O)NC(C)=O)CSC1(C)C)C(C)C)C(N)=O (Ac-QL[X1][Thz(5,5-Me2)]VM-NH2) | 83% | 54%
CC[C@H](C)[C@H](NC(=O)[C@H]1N(C(=O)[C@@H](O)[C@H](Cc2ccccc2)NC(=O)[C@@H](NC(=O)[C@H](CCC(N)=O)NC(C)=O)C(C)C)CSC1(C)C)C(=O)N[C@@H](CCSC)C(N)=O (Ac-QV[X1][Thz(5,5-Me2)]IM-NH2) | 95% | 74%
CSCC[C@H](NC(=O)[C@H](CC(C)C)NC(=O)[C@H]1N(C(=O)[C@@H](O)[C@H](Cc2ccccc2)NC(=O)[C@@H](NC(=O)[C@H](CCC(N)=O)NC(C)=O)C(C)C)CSC1(C)C)C(N)=O (Ac-QV[X1][Thz(5,5-Me2)]LM-NH2) | 84% | 30%
CSCC[C@H](NC(=O)[C@@H](NC(=O)[C@H]1N(C(=O)[C@@H](O)[C@H](Cc2ccccc2)NC(=O)[C@@H](NC(=O)[C@H](CCC(N)=O)NC(C)=O)C(C)C)CSC1(C)C)[C@@H](C)O)C(N)=O (Ac-QV[X1][Thz(5,5-Me2)]TM-NH2) | 78% | < 30%
CSCC[C@H](NC(=O)[C@@H](NC(=O)[C@H]1N(C(=O)[C@@H](O)[C@H](Cc2ccccc2)NC(=O)[C@@H](NC(=O)[C@H](CCC(N)=O)NC(C)=O)C(C)C)CSC1(C)C)C(C)C)C(N)=O (Ac-QV[X1][Thz(5,5-Me2)]VM-NH2) | 96% | 66%
CSCC[C@H](NC(=O)[C@@H](NC(=O)[C@H]1N(C(=O)[C@@H](O)[C@H](Cc2ccccc2)NC(=O)[C@@H](NC(=O)[C@@H](NC(C)=O)C(C)C)C(C)C)CSC1(C)C)C(C)C)C(N)=O (Ac-VV[X1][Thz(5,5-Me2)]VM-NH2) | 95% | 77%
CSCC[C@H](NC(=O)[C@@H](NC(=O)[C@@H]1CCCN1C(=O)[C@@H](O)[C@H](Cc1ccccc1)NC(=O)[C@@H](NC(C)=O)C(C)C)C(C)C)C(=O)N[C@@H](Cc1c[nH]cn1)C(=O)O (Ac-V[X1]PVMH-OH) | < 30% | < 30%
CSCC[C@H](NC(=O)[C@@H](NC(=O)[C@@H]1CCCN1C(=O)[C@@H](O)[C@H](Cc1ccccc1)NC(C)=O)C(C)C)C(=O)N[C@@H](Cc1c[nH]cn1)C(=O)O (Ac-[X1]PVMH-OH) | < 30% | < 30%
CC(C)[C@H](NC(=O)[C@H](CCC(N)=O)NC(=O)[C@@H]1CCCN1)C(=O)N[C@@H](Cc1ccccc1)[C@H](O)C(=O)N1CCC[C@H]1C(N)=O (H-PQV[X1]P-NH2) | < 30% | < 30%
CC(C)[C@H](NC(=O)[C@@H]1CCCN1C(=O)[C@@H](O)[C@H](Cc1ccccc1)NC(=O)[C@@H](NC(=O)[C@H](CCC(N)=O)NC(=O)[C@@H]1CCCN1)C(C)C)C(N)=O (H-PQV[X1]PV-NH2) | < 30% | < 30%
CSCC[C@H](NC(=O)[C@@H](NC(=O)[C@@H]1CCCN1C(=O)[C@@H](O)[C@H](Cc1ccccc1)NC(=O)[C@@H](NC(=O)[C@H](CCC(N)=O)NC(=O)[C@@H]1CCCN1)C(C)C)C(C)C)C(N)=O (H-PQV[X1]PVM-NH2) | < 30% | 86%
CSCC[C@H](NC(=O)[C@@H](NC(=O)[C@@H]1CCCN1C(=O)[C@@H](O)[C@H](Cc1ccccc1)NC(=O)[C@@H](NC(=O)[C@H](CCC(N)=O)NC(=O)[C@@H]1CCCN1)C(C)C)C(C)C)C(=O)N[C@@H](Cc1cnc[nH]1)C(=O)O (H-PQV[X1]PVMH-OH) | < 30% | 94%
CSCC[C@H](NC(=O)[C@@H](NC(=O)[C@H]1N(C(=O)[C@@H](O)[C@H](Cc2ccccc2)NC(=O)[C@@H](NC(=O)[C@H](CCC(N)=O)NC(=O)[C@@H]2CCCN2)C(C)C)CSC1(C)C)C(C)C)C(=O)N[C@@H](Cc1c[nH]cn1)C(=O)O (H-PQV[X1][Thz(5,5-Me2)]VMH-OH) | 58% | > 99%
CSCC[C@H](NC(=O)[C@@H](NC(=O)[C@@H]1CCCN1C(=O)[C@@H](O)[C@H](Cc1ccccc1)NC(=O)[C@@H](N)C(C)C)C(C)C)C(=O)N[C@@H](Cc1c[nH]cn1)C(=O)O (H-V[X1]PVMH-OH) | < 30% | < 30%
CSCC[C@H](NC(=O)[C@@H](NC(=O)[C@@H]1CCCN1C(=O)[C@@H](O)[C@@H](N)Cc1ccccc1)C(C)C)C(=O)N[C@@H](Cc1c[nH]cn1)C(=O)O (X2-PVMH-OH) | < 30% | < 30%
